“And” between values parts separate entries of the source, which are not always exact repeats. Equal entries are not always repeated. Numbers after ± are expanded uncertainties.
Details: 101.33 kPa, Liquid; for viscosity: Concentric cylinders viscometry; for speed of sound: Pulse-echo method; for mass density: Vibrating tube method

Compound	viscosity (283.15 K)	speed of sound (283.15 K)	mass density (283.15 K)	viscosity (293.15 K)	speed of sound (293.15 K)	mass density (293.15 K)	viscosity (303.15 K)	speed of sound (303.15 K)	mass density (303.15 K)	viscosity (313.15 K)	speed of sound (313.15 K)	mass density (313.15 K)	viscosity (323.15 K)	speed of sound (323.15 K)	mass density (323.15 K)	viscosity (333.15 K)	mass density (333.15 K)	viscosity (343.15 K)	mass density (343.15 K)	viscosity (353.15 K)	other results
CCCCCCCCC(C)C [2-methyldecane]	1.37 ± 0.02 mPa·s	1295.5 ± 1.3 m/s	745.7 ± 0.3 kg/m3 and 745.8 ± 0.3 kg/m3	1.15 ± 0.04 mPa·s	1256.2 ± 1.3 m/s	738.4 ± 0.3 kg/m3 and 738.3 ± 0.3 kg/m3	0.977 ± 0.021 mPa·s	1217.1 ± 1.3 m/s	730.9 ± 0.3 kg/m3	0.83 ± 0.017 mPa·s	1178.8 ± 1.3 m/s	723.5 ± 0.3 kg/m3 and 723.2 ± 0.3 kg/m3	0.736 ± 0.015 mPa·s	1141 ± 1.3 m/s	715.9 ± 0.3 kg/m3 and 715.7 ± 0.3 kg/m3	0.647 ± 0.017 mPa·s	708.1 ± 0.3 kg/m3	0.575 ± 0.017 mPa·s	700.5 ± 0.3 kg/m3	0.514 ± 0.015 mPa·s	mass density (353.15 K): 692.8 ± 0.4 kg/m3; viscosity (363.15 K): 0.464 ± 0.013 mPa·s; mass density (363.15 K): 684.9 ± 0.4 kg/m3; viscosity (373.15 K): 0.422 ± 0.011 mPa·s; mass density (373.15 K): 677 ± 0.4 kg/m3
CCCCCCCC(C)C [2-methylnonane]	1.037 ± 0.022 mPa·s	1271.4 ± 1.5 m/s	734.7 ± 0.4 kg/m3 and 734.5 ± 0.3 kg/m3	0.887 ± 0.02 mPa·s	1231.1 ± 1.5 m/s	726.9 ± 0.3 kg/m3 and 727.1 ± 0.4 kg/m3	0.768 ± 0.017 mPa·s	1191.3 ± 1.5 m/s	719.3 ± 0.3 kg/m3 and 719.4 ± 0.4 kg/m3	0.653 ± 0.015 mPa·s	1152 ± 1.5 m/s	711.6 ± 0.3 kg/m3 and 711.7 ± 0.4 kg/m3	0.595 ± 0.013 mPa·s	1113.4 ± 1.5 m/s	703.9 ± 0.3 kg/m3 and 703.9 ± 0.4 kg/m3	0.529 ± 0.012 mPa·s	696 ± 0.4 kg/m3	0.475 ± 0.011 mPa·s	688.1 ± 0.4 kg/m3	0.428 ± 0.01 mPa·s	mass density (353.15 K): 680.2 ± 0.4 kg/m3; viscosity (363.15 K): 0.388 ± 0.009 mPa·s; mass density (363.15 K): 672.1 ± 0.4 kg/m3; viscosity (373.15 K): 0.355 ± 0.009 mPa·s; mass density (373.15 K): 664 ± 0.4 kg/m3
CCCCCCC(C)C [2-methyloctane]	0.776 ± 0.017 mPa·s	1242.2 ± 1.5 m/s	723.2 ± 0.5 kg/m3 and 723.2 ± 0.3 kg/m3	0.676 ± 0.015 mPa·s	1201.3 ± 1.5 m/s	715.4 ± 0.3 kg/m3 and 715.3 ± 0.4 kg/m3	0.594 ± 0.013 mPa·s	1160.7 ± 1.5 m/s	707.6 ± 0.3 kg/m3 and 707.4 ± 0.4 kg/m3	0.499 ± 0.011 mPa·s	1120.7 ± 1.5 m/s	699.6 ± 0.3 kg/m3 and 699.4 ± 0.4 kg/m3	0.47 ± 0.011 mPa·s	1081.2 ± 1.5 m/s	691.6 ± 0.4 kg/m3 and 691.4 ± 0.4 kg/m3	0.422 ± 0.01 mPa·s	683.3 ± 0.4 kg/m3	0.381 ± 0.009 mPa·s	675.1 ± 0.4 kg/m3	0.345 ± 0.008 mPa·s	mass density (353.15 K): 666.7 ± 0.4 kg/m3; viscosity (363.15 K): 0.315 ± 0.008 mPa·s; mass density (363.15 K): 658.2 ± 0.4 kg/m3; viscosity (373.15 K): 0.288 ± 0.008 mPa·s; mass density (373.15 K): 649.7 ± 0.5 kg/m3
CCCCCCCCCCCCCC(C)C [2-methylpentadecane]	4.6 ± 0.29 mPa·s	1378.7 ± 6.1 m/s	782.2 ± 4.9 kg/m3 and 781.8 ± 4.9 kg/m3	3.52 ± 0.24 mPa·s	1341 ± 6.1 m/s	774.9 ± 4.9 kg/m3 and 775 ± 4.9 kg/m3	2.77 ± 0.16 mPa·s	1303.8 ± 6.1 m/s	767.9 ± 4.8 kg/m3 and 768 ± 4.8 kg/m3	2.24 ± 0.16 mPa·s	1267.3 ± 6.1 m/s	761 ± 4.7 kg/m3	1.85 ± 0.11 mPa·s	1231.6 ± 6.1 m/s	754.1 ± 4.6 kg/m3 and 754 ± 4.6 kg/m3	1.55 ± 0.08 mPa·s	747 ± 4.5 kg/m3	1.33 ± 0.06 mPa·s	740 ± 4.5 kg/m3	1.14 ± 0.07 mPa·s	mass density (353.15 K): 733 ± 4.4 kg/m3; viscosity (363.15 K): 1 ± 0.05 mPa·s; mass density (363.15 K): 726 ± 4.3 kg/m3; viscosity (373.15 K): 0.88 ± 0.03 mPa·s; mass density (373.15 K): 718.9 ± 4.2 kg/m3
CCC(C)CC(C)CC (centres undefined) [3,5-dimethylheptane]	0.792 ± 0.018 mPa·s	1245.1 ± 1.9 m/s	734.1 ± 0.5 kg/m3 and 734 ± 0.4 kg/m3	0.688 ± 0.016 mPa·s	1203.3 ± 1.9 m/s	726.2 ± 0.4 kg/m3 and 726.3 ± 0.5 kg/m3	0.604 ± 0.014 mPa·s	1162 ± 1.9 m/s	718.4 ± 0.4 kg/m3 and 718.4 ± 0.5 kg/m3	0.508 ± 0.012 mPa·s	1121.3 ± 1.9 m/s	710.5 ± 0.4 kg/m3 and 710.5 ± 0.5 kg/m3	0.477 ± 0.012 mPa·s	1081.4 ± 1.9 m/s	702.5 ± 0.4 kg/m3 and 702.5 ± 0.5 kg/m3	0.428 ± 0.01 mPa·s	694.5 ± 0.5 kg/m3	0.386 ± 0.01 mPa·s	686.3 ± 0.5 kg/m3	0.35 ± 0.01 mPa·s	mass density (353.15 K): 678 ± 0.5 kg/m3; viscosity (363.15 K): 0.319 ± 0.008 mPa·s; mass density (363.15 K): 669.7 ± 0.5 kg/m3; mass density (373.15 K): 661.2 ± 0.5 kg/m3
CCC(C)CCC(C)CC (centres undefined) [3,6-dimethyloctane]	0.988 ± 0.022 mPa·s	1277.8 ± 1.7 m/s	746.6 ± 0.4 kg/m3 and 746.6 ± 0.5 kg/m3	0.846 ± 0.018 mPa·s	1236.7 ± 1.7 m/s	738.9 ± 0.5 kg/m3 and 738.9 ± 0.4 kg/m3	0.733 ± 0.016 mPa·s	1196.2 ± 1.7 m/s	731.2 ± 0.5 kg/m3 and 731.1 ± 0.4 kg/m3	0.62 ± 0.014 mPa·s	1156.3 ± 1.9 m/s	723.5 ± 0.6 kg/m3 and 723.3 ± 0.4 kg/m3	0.568 ± 0.014 mPa·s	1117.2 ± 1.7 m/s	715.7 ± 0.6 kg/m3 and 715.5 ± 0.4 kg/m3	0.506 ± 0.012 mPa·s	707.6 ± 0.4 kg/m3	0.453 ± 0.01 mPa·s	699.6 ± 0.4 kg/m3	0.409 ± 0.01 mPa·s	mass density (353.15 K): 691.5 ± 0.4 kg/m3; viscosity (363.15 K): 0.372 ± 0.01 mPa·s; mass density (363.15 K): 683.3 ± 0.4 kg/m3; viscosity (373.15 K): 0.328 ± 0.008 mPa·s; mass density (373.15 K): 674.9 ± 0.5 kg/m3
CCCCCCCCC(C)CC (centres undefined) [3-methylundecane]	1.73 ± 0.03 mPa·s	1330.2 ± 2.3 m/s	758.6 ± 0.6 kg/m3 and 758.3 ± 0.6 kg/m3	1.43 ± 0.03 mPa·s	1291 ± 2.3 m/s	751.1 ± 0.6 kg/m3 and 751.3 ± 0.6 kg/m3	1.2 ± 0.02 mPa·s	1252.2 ± 2.3 m/s	743.9 ± 0.6 kg/m3 and 744 ± 0.6 kg/m3	1.01 ± 0.02 mPa·s	1214 ± 2.3 m/s	736.6 ± 0.6 kg/m3 and 736.7 ± 0.6 kg/m3	0.883 ± 0.021 mPa·s	1176.6 ± 2.3 m/s	729.3 ± 0.6 kg/m3	0.771 ± 0.019 mPa·s	721.9 ± 0.6 kg/m3	0.68 ± 0.017 mPa·s	714.4 ± 0.6 kg/m3	0.605 ± 0.014 mPa·s	mass density (353.15 K): 707 ± 0.6 kg/m3; viscosity (363.15 K): 0.543 ± 0.012 mPa·s; mass density (363.15 K): 699.4 ± 0.6 kg/m3; viscosity (373.15 K): 0.492 ± 0.012 mPa·s; mass density (373.15 K): 691.9 ± 0.6 kg/m3
CCCCC(C)CCC (centres undefined) [4-methyloctane]	0.719 ± 0.021 mPa·s	1254.9 ± 1.5 m/s	727.5 ± 0.4 kg/m3 and 727.6 ± 0.3 kg/m3	0.628 ± 0.021 mPa·s	1213 ± 1.5 m/s	719.8 ± 0.3 kg/m3 and 719.7 ± 0.4 kg/m3	0.554 ± 0.021 mPa·s	1171.6 ± 1.5 m/s	711.9 ± 0.3 kg/m3 and 711.7 ± 0.4 kg/m3	0.453 ± 0.08 mPa·s	1130.8 ± 1.5 m/s	703.9 ± 0.3 kg/m3 and 703.7 ± 0.4 kg/m3	0.441 ± 0.021 mPa·s	1090.7 ± 1.5 m/s	695.9 ± 0.3 kg/m3 and 695.7 ± 0.4 kg/m3	0.397 ± 0.021 mPa·s	687.5 ± 0.4 kg/m3	0.368 ± 0.06 mPa·s	679.3 ± 0.4 kg/m3	0.329 ± 0.04 mPa·s	mass density (353.15 K): 671 ± 0.4 kg/m3; viscosity (363.15 K): 0.294 ± 0.04 mPa·s; mass density (363.15 K): 662.5 ± 0.4 kg/m3; viscosity (373.15 K): 0.261 ± 0.04 mPa·s; mass density (373.15 K): 653.9 ± 0.4 kg/m3
CCCCCCCCCC(C)CCCCCC (centres undefined) [7-methylhexadecane]	5.36 ± 0.52 mPa·s	1392.5 ± 2.3 m/s	787.6 ± 0.6 kg/m3	4 ± 0.4 mPa·s	1354.9 ± 2.3 m/s	780.7 ± 0.6 kg/m3	3.09 ± 0.28 mPa·s	1317.7 ± 2.3 m/s	773.9 ± 0.6 kg/m3 and 773.8 ± 0.6 kg/m3	2.47 ± 0.22 mPa·s	1281.3 ± 2.3 m/s	767 ± 0.6 kg/m3 and 766.9 ± 0.6 kg/m3	2 ± 0.18 mPa·s	1245.5 ± 2.3 m/s	760.2 ± 0.6 kg/m3 and 760 ± 0.6 kg/m3	1.66 ± 0.16 mPa·s	753.1 ± 0.6 kg/m3	1.41 ± 0.12 mPa·s	746.2 ± 0.6 kg/m3	1.21 ± 0.08 mPa·s	mass density (353.15 K): 739.3 ± 0.6 kg/m3; viscosity (363.15 K): 1.05 ± 0.08 mPa·s; mass density (363.15 K): 732.4 ± 0.6 kg/m3; viscosity (373.15 K): 0.91 ± 0.05 mPa·s; mass density (373.15 K): 725.4 ± 0.6 kg/m3

— the NIST ThermoML archive (doi:10.1021/je400274f)
